Data on 15 compounds can be found in ChEMBL document CHEMBL1201862, “PubChem BioAssay data set” (2004).

Active and inactive are the calls of the source.

A short description of test [1]: inhibitors of Bluetongue virus cytopathic effect, confirmation, arbovirus, BSR cells (AID 1250).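 Also: protection from viral cytopathic effect measured as cell viability by ATP luminescence.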 Format: functional. Background: Protection from cytopathic effect is a common read-out in antiviral testing.
The target in test [2] is Glyceraldehyde-3-phosphate dehydrogenase (Homo sapiens, UniProt P04406).
Test [3] deals with T1, Oxysterols receptor LXR-beta (Homo sapiens, UniProt P55055).
T1 sequence (P55055 whole entry): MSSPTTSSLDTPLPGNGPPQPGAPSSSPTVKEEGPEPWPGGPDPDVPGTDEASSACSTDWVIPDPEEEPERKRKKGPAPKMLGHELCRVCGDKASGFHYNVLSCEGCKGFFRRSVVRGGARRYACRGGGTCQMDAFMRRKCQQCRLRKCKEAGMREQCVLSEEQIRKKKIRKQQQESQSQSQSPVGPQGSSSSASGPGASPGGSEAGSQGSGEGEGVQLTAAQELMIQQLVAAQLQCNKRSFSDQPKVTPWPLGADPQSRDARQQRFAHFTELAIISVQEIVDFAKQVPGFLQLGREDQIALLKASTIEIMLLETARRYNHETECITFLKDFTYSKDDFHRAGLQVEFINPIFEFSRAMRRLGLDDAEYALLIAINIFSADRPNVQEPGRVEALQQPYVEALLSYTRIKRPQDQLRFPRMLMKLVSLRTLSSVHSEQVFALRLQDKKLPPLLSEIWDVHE
The format is functional, cell-based.

Test [4] can be described thus: cells.
The nature of test [5]: Luminescence-based counterscreen assay for KLF5 inhibitors: dose response cell-based high throughput screening assay to identify cytotoxic compounds using the IEC-6 intestinal epithelial cell line. [Related pubchem assays: 1700 (Primary screen.), 1834 (Confirmation screen.), 1858 (Summary AID.), 1905 (Counterscreen.)]. The format is functional. (Counterscreens check selectivity or assay interference.)

For test [6], the target named is T2, Nuclear receptor subfamily 0 group B member 1 (Homo sapiens, UniProt P51843).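 Also: HEK293T cells transfected with SF-1 and DAX-1 plus StAR promoter luciferase reporter.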
T2 sequence (P51843 whole entry): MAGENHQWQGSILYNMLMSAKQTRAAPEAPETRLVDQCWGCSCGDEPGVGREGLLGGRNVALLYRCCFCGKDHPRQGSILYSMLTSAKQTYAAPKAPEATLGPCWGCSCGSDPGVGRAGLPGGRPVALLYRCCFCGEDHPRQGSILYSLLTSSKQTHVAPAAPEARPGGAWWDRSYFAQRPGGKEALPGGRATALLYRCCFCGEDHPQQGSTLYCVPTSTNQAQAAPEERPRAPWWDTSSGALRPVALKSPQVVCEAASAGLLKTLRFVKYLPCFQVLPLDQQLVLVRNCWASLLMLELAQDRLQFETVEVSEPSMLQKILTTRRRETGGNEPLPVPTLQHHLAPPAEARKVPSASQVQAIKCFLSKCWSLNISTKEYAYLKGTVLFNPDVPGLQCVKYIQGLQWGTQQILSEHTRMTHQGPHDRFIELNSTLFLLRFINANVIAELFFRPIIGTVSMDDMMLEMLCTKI
The format is functional, cell-based.

Test [7] is described as follows: cells. The format is functional, cell-based.
Test [8] addresses T3, Estrogen receptor (Homo sapiens, UniProt P03372).
T3 sequence (P03372 whole entry): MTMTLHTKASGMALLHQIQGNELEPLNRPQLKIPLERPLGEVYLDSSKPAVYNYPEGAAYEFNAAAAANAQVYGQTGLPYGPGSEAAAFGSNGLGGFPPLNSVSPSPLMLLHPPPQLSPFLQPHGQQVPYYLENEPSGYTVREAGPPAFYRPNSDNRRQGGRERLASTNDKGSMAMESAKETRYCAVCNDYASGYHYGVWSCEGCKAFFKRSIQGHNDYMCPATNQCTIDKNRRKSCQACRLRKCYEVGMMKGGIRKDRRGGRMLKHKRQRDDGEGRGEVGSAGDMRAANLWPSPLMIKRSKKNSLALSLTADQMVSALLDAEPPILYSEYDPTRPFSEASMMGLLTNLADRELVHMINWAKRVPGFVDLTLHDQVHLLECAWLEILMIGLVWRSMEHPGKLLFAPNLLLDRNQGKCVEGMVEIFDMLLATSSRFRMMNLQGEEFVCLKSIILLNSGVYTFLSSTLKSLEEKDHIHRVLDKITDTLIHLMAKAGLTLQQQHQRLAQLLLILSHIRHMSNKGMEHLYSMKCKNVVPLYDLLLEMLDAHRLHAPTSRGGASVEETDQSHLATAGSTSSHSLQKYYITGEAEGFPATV

Test [9] is described as follows: cells. This is another data set of the same source.
For test [10], the target named is T4, Alkaline phosphatase, tissue-nonspecific isozyme (Homo sapiens, UniProt P05186).
T4 sequence (P05186 whole entry): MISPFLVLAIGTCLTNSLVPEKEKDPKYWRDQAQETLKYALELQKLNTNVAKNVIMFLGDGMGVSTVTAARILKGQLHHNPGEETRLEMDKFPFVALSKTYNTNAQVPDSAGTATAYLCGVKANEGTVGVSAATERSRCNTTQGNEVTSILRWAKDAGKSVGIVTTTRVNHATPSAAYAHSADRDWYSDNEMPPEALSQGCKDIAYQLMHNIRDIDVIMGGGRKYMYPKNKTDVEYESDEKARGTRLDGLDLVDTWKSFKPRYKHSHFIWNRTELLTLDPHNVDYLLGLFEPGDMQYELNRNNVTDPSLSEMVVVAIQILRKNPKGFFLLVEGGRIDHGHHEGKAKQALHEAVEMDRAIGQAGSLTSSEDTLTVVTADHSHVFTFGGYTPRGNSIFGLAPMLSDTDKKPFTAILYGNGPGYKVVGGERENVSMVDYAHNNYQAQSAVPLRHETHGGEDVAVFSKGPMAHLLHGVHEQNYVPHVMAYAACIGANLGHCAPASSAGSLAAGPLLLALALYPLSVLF
In words: human TNAP enzyme inhibitors, SAR follow-up, biochemical, luminescent, dose response (AID 1056).

Test [11] deals with Alkaline phosphatase, placental type (Homo sapiens, UniProt P05187). In words: PLAP enzyme inhibitors, confirmation, biochemical, luminescence (AID 1512). The format is functional.
Test [12] in a line: A cytotoxicity screen of small molecule inhibitors of the PhoP region in Salmonella typhi identified in the primary screen. [Related pubchem assays: 1850, 1864, 1985 ]. The format is functional.
Test [13] concerns the target T5, Aspartyl aminopeptidase (Plasmodium falciparum 3D7, UniProt Q8I2J3).
T5 sequence (Q8I2J3 whole entry): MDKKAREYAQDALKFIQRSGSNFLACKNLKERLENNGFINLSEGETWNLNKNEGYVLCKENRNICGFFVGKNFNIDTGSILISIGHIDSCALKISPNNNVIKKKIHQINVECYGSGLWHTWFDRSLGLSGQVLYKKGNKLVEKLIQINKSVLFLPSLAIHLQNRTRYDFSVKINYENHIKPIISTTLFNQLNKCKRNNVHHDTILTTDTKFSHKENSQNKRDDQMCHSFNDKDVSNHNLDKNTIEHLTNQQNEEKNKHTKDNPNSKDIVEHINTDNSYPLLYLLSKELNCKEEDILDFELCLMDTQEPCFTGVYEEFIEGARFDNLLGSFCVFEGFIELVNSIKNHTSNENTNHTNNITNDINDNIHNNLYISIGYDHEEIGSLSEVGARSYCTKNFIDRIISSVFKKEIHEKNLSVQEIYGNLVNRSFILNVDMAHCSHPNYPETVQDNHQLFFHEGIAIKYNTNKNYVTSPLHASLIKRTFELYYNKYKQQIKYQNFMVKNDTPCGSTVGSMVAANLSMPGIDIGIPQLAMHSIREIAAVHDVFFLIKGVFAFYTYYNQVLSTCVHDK

The target of test [14] is Procathepsin L (Homo sapiens, UniProt P07711).
The target of test [15] is Cytochrome P450 2C9 (Homo sapiens, UniProt P11712).
Test [16] deals with Cytochrome P450 3A4 (Homo sapiens, UniProt P08684).
The target of test [17] is T6, Cytochrome P450 1A2 (Homo sapiens, UniProt P05177).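 Also: PubChem cytochrome P450 panel assay, CYP1A2 panel member.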
T6 sequence (P05177 whole entry): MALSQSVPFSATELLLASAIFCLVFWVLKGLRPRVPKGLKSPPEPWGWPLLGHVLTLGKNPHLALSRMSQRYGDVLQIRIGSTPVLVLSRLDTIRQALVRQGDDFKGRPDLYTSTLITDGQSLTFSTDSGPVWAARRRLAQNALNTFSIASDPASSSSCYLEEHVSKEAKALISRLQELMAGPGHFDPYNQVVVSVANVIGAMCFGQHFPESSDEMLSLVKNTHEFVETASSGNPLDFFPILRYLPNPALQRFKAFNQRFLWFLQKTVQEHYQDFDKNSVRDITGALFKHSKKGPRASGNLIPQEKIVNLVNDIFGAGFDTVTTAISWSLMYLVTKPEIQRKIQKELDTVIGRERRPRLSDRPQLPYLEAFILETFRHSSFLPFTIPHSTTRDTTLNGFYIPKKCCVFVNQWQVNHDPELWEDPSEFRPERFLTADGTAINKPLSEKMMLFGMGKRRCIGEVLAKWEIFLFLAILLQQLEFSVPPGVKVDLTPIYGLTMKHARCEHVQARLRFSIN

Test [18] relates to BJ. In words: cytotoxicity toward BJ-TERT-LT-ST fibroblasts, dose response, cell-based, RAS-independent, luminescence (AID 1935).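 Also: BJ fibroblasts immortalized with TERT plus LT and ST oncogenes.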 To be noted: Homo sapiens. The format is functional.
The test system of test [19] is BJ. In words: cytotoxicity toward BJ-TERT fibroblasts, dose response, cell-based, RAS-independent, luminescence (AID 1933). The format is functional. The settings on record: Homo sapiens.
Test [20] in a line: cytotoxicity toward DRD oncogenic fibroblasts, dose response, cell-based, non-viral oncogenic, luminescence (AID 1934). Format: functional. To be noted: Homo sapiens.
The test system of test [21] is BJ. In words: cells. The format is functional, cell-based. The settings on record: Homo sapiens.
Test [22] is described as follows: Luminescence Cell-Based Dose Confirmation HTS to Identify Inhibitors of Platelet Dense Granule Release. [Related pubchem assays: 1663 (Primary HTS), 1678 (Summary of Project)]. Format: functional.
Test [23] deals with Luciferin 4-monooxygenase (Photinus pyralis, UniProt P08659). In words: firefly luciferase enzyme inhibitors, dose response, biochemical, luminescence (AID 1891).
For test [24], the target named is T7, Mannose-6-phosphate isomerase (Homo sapiens, UniProt P34949).
T7 sequence (P34949 whole entry): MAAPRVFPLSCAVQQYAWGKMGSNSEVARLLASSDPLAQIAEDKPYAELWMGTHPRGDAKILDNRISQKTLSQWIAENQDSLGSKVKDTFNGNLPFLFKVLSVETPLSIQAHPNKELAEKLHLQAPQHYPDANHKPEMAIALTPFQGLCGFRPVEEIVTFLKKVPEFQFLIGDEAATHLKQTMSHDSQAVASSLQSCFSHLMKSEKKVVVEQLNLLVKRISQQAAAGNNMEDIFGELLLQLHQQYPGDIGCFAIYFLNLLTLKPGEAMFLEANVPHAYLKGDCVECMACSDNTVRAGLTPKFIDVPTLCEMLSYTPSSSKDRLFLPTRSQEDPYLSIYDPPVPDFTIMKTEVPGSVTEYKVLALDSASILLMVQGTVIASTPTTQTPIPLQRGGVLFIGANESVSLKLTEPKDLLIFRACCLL
In words: inhibitors of human PMI, primary screen, biochemical, fluorescence intensity, coupled assay (AID 1209).

Chain of Procathepsin L (P07711 whole entry): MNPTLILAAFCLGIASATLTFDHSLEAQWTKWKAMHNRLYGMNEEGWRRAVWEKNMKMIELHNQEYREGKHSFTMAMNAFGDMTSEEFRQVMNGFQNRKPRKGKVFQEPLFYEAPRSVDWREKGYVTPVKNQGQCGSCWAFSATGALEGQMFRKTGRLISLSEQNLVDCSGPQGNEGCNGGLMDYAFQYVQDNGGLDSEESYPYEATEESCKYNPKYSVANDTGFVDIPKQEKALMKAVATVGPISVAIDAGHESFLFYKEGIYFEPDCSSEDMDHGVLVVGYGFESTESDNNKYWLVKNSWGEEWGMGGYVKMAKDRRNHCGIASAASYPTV
Chain of Glyceraldehyde-3-phosphate dehydrogenase (P04406 whole entry): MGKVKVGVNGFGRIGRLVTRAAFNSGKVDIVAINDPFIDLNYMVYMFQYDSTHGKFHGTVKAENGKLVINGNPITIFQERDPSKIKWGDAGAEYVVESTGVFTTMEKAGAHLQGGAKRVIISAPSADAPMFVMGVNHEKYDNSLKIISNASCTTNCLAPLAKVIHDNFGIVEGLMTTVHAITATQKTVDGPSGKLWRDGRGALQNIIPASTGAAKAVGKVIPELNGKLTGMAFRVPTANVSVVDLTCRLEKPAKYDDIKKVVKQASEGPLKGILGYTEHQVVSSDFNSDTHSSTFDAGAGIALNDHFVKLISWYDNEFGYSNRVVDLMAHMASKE
Chain of Cytochrome P450 3A4 (P08684 whole entry): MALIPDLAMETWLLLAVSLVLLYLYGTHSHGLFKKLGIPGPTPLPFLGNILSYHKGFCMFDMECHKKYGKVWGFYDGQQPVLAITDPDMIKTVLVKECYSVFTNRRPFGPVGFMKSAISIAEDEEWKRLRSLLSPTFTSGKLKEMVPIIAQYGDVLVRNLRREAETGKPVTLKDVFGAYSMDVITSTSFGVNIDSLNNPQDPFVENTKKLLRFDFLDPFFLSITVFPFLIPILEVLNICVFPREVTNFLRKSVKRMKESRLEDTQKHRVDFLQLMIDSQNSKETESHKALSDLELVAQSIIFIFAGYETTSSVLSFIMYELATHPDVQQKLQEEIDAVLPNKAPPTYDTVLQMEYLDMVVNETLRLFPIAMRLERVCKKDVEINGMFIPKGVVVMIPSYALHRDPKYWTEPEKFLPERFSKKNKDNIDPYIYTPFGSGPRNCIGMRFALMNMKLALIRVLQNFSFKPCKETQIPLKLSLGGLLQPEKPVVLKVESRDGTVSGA
Chain of Luciferin 4-monooxygenase (P08659 whole entry): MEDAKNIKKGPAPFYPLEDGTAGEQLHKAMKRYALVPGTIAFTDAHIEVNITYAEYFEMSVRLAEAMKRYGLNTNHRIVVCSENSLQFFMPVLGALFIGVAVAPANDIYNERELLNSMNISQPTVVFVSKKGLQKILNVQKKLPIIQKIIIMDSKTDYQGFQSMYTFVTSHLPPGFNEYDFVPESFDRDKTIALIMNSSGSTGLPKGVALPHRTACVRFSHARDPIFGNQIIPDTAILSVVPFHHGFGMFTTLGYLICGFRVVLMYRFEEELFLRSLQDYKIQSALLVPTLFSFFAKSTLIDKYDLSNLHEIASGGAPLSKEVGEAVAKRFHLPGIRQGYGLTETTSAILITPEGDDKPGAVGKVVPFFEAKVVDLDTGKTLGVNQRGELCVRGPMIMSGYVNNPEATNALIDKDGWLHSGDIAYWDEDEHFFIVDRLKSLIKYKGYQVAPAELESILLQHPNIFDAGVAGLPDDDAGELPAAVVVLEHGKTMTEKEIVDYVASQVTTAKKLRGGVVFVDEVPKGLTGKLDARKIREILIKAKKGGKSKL
Chain of Cytochrome P450 2C9 (P11712 whole entry): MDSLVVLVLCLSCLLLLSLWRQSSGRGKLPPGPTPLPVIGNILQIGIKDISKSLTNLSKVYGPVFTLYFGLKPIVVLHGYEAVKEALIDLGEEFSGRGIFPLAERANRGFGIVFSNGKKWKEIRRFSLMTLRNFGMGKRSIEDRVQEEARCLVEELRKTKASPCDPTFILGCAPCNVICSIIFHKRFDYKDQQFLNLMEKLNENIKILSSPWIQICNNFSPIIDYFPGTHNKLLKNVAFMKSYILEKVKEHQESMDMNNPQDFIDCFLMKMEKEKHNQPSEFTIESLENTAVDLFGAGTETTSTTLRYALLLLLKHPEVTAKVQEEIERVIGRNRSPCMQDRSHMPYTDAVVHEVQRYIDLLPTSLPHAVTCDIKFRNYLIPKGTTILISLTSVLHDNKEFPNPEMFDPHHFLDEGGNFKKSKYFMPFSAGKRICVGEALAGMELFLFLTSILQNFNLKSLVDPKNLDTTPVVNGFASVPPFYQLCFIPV
Chain of Alkaline phosphatase, placental type (P05187 whole entry): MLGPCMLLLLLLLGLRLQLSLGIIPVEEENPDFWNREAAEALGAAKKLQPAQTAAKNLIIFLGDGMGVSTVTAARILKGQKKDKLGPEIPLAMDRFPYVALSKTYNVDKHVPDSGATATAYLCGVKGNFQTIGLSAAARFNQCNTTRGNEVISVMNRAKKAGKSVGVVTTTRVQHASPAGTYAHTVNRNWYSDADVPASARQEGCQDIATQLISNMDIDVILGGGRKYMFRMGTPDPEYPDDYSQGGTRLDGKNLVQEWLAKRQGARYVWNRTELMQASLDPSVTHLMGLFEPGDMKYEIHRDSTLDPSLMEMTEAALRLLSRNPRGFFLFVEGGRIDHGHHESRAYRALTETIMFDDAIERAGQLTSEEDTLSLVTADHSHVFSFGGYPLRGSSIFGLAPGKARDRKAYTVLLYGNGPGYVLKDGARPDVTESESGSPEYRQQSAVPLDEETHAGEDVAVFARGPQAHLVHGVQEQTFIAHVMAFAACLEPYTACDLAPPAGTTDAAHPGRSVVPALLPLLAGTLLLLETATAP

As usually defined, the IC50 is the concentration that gives 50% inhibition. In the case of `Cc1nn(-c2cc(C(F)(F)F)ccc2Cl)c2nc(C(F)(F)F)nc(O)c12`, the half-maximal inhibitory concentration (IC50) in test [1] was 22.5 µM (active).

For the compound `CC(C)CNC(=O)c1cc(-c2ccc(Cl)cc2Cl)n[nH]1`, in [2], the IC50 is > 10 µM (inconclusive).

The EC50 is the concentration at which the effect is half-maximal. `CCc1ccc(NC(=O)c2cnn3ccccc23)cc1`: the EC50 in test [3] and in test [4] was > 67.5 µM (inactive) in each case. Further, the IC50 in test [5] was > 39.8 µM (not active); in test [6], > 0.0926 µM (active); in test [7], > 67.5 µM (inactive).

As to `COc1cccc(/C=C2\N=C(c3c(-c4ccccc4)noc3C)OC2=O)c1OC`, in test [8], the half-inhibitory concentration (IC50) was > 50 µM (not active).

Regarding `CN(Cc1nc(O)c2ccccc2n1)C(=O)c1cc(C2CC2)nn1-c1ccccc1`, the IC50 in test [9] was 21.6 µM (active).

As to `O=C(c1cc(-c2ccc(Cl)cc2Cl)n[nH]1)N1CCCC1`, the IC50 in [2] is > 100 µM (not active); in test [10], 6.57 µM (active); in test [11], > 100 µM (inactive).

In the case of `Cc1cc(C)c2nc(N=C(N)NC(=O)c3ccccc3)nc(C)c2c1`, the concentration for a half-maximal effect (EC50) in [12] is > 50 µM (active).

In the case of `Cc1cc(OCC(=O)Nn2cnnc2)ccc1Br`, the half-inhibitory concentration (IC50) in [13] is 2.55 µM (active); in test [14], > 59.6 µM (not active).

By AC50 is commonly meant the concentration giving half of the maximal activity seen. On to `Cc1cc(C)n(CC(O)COc2ccccc2)n1` (configuration not stated), for which the values for the half-maximal activity concentration (AC50) in test [15], in test [16] and in test [17] were 0.0355 µM (inconclusive), 15.8 µM (inconclusive) and 15.8 µM (inconclusive), respectively. The half-maximal inhibitory concentration (IC50) in test [8] was > 50 µM (not active).

For `O=C(NCc1ccccc1Cl)C1CCN(S(=O)(=O)c2cccc3nonc23)CC1`, the half-maximal inhibitory concentration (IC50) in test [9] is 27.2 µM (active).

For the compound `COCCn1c(SCC(=O)Nc2nnc(C)s2)nnc1-c1c[nH]c2ccccc12`, in test [12], the concentration for a half-maximal effect (EC50) is > 50 µM (active).

`CCOC(=O)c1c(-c2ccc(C)o2)csc1NC(=S)NC(=O)c1ccccc1Br`: the IC50 in test [1] is 37.3 µM (active).

For the compound `CN(CCO)c1ccc(/C=N/Nc2nncc3ccccc23)cc1`, the 50% inhibitory concentration (IC50) in test [5] is listed as 24.7 µM (not active). For the same compound, the EC50 in [18] was > 150 µM (not active); in test [19], > 150 µM (not active); in [20], 4.01 µM (active); in [21], 10.8 µM (active); in test [22], 0.533 µM (active); in test [23], 0.67 µM (active).

Regarding `CCOC(=O)c1ccc(N2C(=O)CC(SCC(=O)Nc3ccc(S(N)(=O)=O)cc3)C2=O)cc1` (configuration not stated), the IC50 in [24] was 28.1 µM (active).

Regarding `COc1cccc(-c2cc(C(=O)Nn3cnnc3)c3ccccc3n2)c1`, the half-inhibitory concentration (IC50) was 1.87 µM (active) in test [13] and > 59.6 µM (not active) in test [14].
